Results on 10 molecules are retold here after ChEMBL document CHEMBL1201862, “PubChem BioAssay data set” (2004).

The GI50 is the concentration at which growth is held to half of that of the control.

Assay in all cases: DTP human tumour cell line panel, 48 h
The test system of experiment [1] is NCI-H522.
Experiment [2] has as its system HT-29.
In experiment [3] the test system is EKVX.
The test system of experiment [4] is HCT-15.
Experiment [5] deals with OVCAR-5.
The subject of experiment [6] is MDA-MB-435.
Experiment [7] concerns ACHN.
Experiment [8] has as its system NCI-H460.
Experiment [9] deals with U-251.
Experiment [10] concerns OVCAR-3.
In experiment [11] the test system is UACC-257.
Experiment [12] concerns RPMI-8226.
For experiment [13], the system named is Hs-578T.
Experiment [14] concerns T47D.
Experiment [15] has as its system SK-OV-3.
For experiment [16], the system named is IGROV-1.
For experiment [17], the system named is HCC 2998.
Experiment [18] deals with TK-10.
Experiment [19] relates to MDA-MB-231.
Experiment [20] concerns SF-539.

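Following 48 hours of exposure in 96-well plates, responses at five concentrations were used to interpolate endpoints linearly. The concentration for 50% growth inhibition is given as GI50.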 Activity calls are given as the source filed them. Rule as the data show it: active = GI50 up to about 1.1 µM and inactive = higher. Where only a bound is given, the exact number is not on record here.

For the molecule `Cc1cc(NC(=O)C(=O)Cc2nc3ccccc3s2)ccc1Cl`, the GI50 in experiment [1] was > 100 µM (inactive); in [2], > 100 µM (inactive); in experiment [3] it was > 100 µM (inactive); in experiment [4], more than 100 µM; in experiment [5], > 100 µM (inactive); in experiment [6], > 100 µM (inactive). In addition, the GI50 in experiment [7] was > 100 µM (inactive); in experiment [8], > 100 µM (inactive); in experiment [9], > 100 µM (inactive); in experiment [10], > 100 µM (inactive); in [11], > 93.3 µM (inactive); in experiment [12], > 100 µM (inactive). Moreover, the GI50 in experiment [13], in experiment [14], in experiment [15], in [16], in [17] and in experiment [18] was > 100 µM (inactive) in each case. Also, the GI50 in [19] and in [20] was > 100 µM (inactive) in each case.
With `CC1=NOC(C)(O)/C1=N/O` (stereo not given), the GI50 in experiment [1] was > 100 µM (inactive); in experiment [2], > 100 µM (inactive); in experiment [3], > 100 µM (inactive); in [4], more than 100 µM; in [5], > 100 µM (inactive); in [6], > 100 µM (inactive). The GI50 in [7], in experiment [8], in [9], in experiment [10], in experiment [11] and in experiment [12] was > 100 µM (inactive) throughout. Moreover, the GI50 in experiment [13], in [14], in [15], in experiment [16], in experiment [17] and in experiment [18] was > 100 µM (inactive) throughout. For the same molecule, the GI50 in [19] and in [20] was > 100 µM (inactive) in each case.
Regarding `CN(C)c1ccc(/C=N/n2c(-c3ccccc3)nc3ccccc3c2=O)cc1`, the GI50 in [1] is 49.3 µM (inactive); in experiment [2], 40 µM (inactive); in [3], > 100 µM (inactive); in experiment [4] it was 27.5 µM; in [5], > 100 µM (inactive); in experiment [6], 79.4 µM (inactive). The GI50 in [7] was 18.5 µM (inactive); in experiment [8] it was 35.4 µM (inactive); in experiment [9], 63.4 µM (inactive); in experiment [10] it was > 100 µM (inactive); in [11] it was > 100 µM (inactive); in experiment [12], 20.4 µM (inactive). The GI50 in [13] was 20 µM (inactive); in experiment [14], 15 µM (inactive); in experiment [15] it was 80.5 µM (inactive); in [16], > 100 µM (inactive); in experiment [17], > 100 µM (inactive); in experiment [18], 81.7 µM (inactive). For the same molecule, the GI50 in [19] is 30 µM (inactive); in experiment [20], > 100 µM (inactive).
Take `CC(=O)OC(CCC1(C)OC1COc1ccc(CCNC(=O)C=C(C)C)cc1)C(C)(C)OC(C)=O` (stereo not given): the GI50 in experiment [1] is 19.5 µM (inactive); in experiment [2] it was 46 µM (inactive); in experiment [3] it was 16.9 µM (inactive); in experiment [4], 24.9 µM; in [5], > 100 µM (inactive); in experiment [6] it was 16.2 µM (inactive). Besides, the GI50 in [7] is 3.61 µM (inactive); in experiment [8], 25.6 µM (inactive); in experiment [9], > 100 µM (inactive); in experiment [10], 16.8 µM (inactive); in experiment [11] it was 0.449 µM (active); in experiment [12], 13.1 µM (inactive). Also, the GI50 in experiment [13] was 59.3 µM (inactive); in experiment [14], 16.6 µM (inactive); in experiment [15], > 100 µM (inactive); in experiment [16] it was 29.1 µM (inactive); in experiment [17], > 100 µM (inactive); in experiment [18], > 100 µM (inactive). The GI50 in experiment [19] and in experiment [20] was > 100 µM (inactive) each time.
On to `CC(=O)NC1COC(COC(=O)CCCCCCCCCCNC(=O)c2ccc([N+](=O)[O-])c3c(=O)c4ccccc4[nH]c23)C(O)C1OC(C)C(=O)NC(C(=O)NC(CCC(N)=O)C(=O)OCc1ccccc1)C(C)C` (stereo not given), for which the GI50 in experiment [1] is 12.3 µM (inactive); in experiment [2], 6.67 µM (inactive); in experiment [3] it was 8.69 µM (inactive); in experiment [4], 11.2 µM; in experiment [5] it was 36 µM (inactive); in experiment [6], 36.8 µM (inactive). Besides, the GI50 in experiment [7] was 14.8 µM (inactive); in experiment [8], 16.9 µM (inactive); in experiment [9] it was 11.5 µM (inactive); in experiment [10], 3.57 µM (inactive); in experiment [11], 15.3 µM (inactive); in [12], 4.97 µM (inactive). The GI50 is 6.35 µM (inactive) in [13]; 2.25 µM (inactive) in [14]; 39.2 µM (inactive) in experiment [15]; 6.38 µM (inactive) in experiment [16]; 5.96 µM (inactive) in experiment [17]; 18.5 µM (inactive) in [18]. Further, the GI50 was 38.8 µM (inactive) in [19] and 20.8 µM (inactive) in experiment [20].
Turning to `c1ccc2c3ccn4ccc5c6ccccc6[nH]c5c4c-3nc2c1`, the GI50 was 1.46 µM (inactive) in experiment [1]; 0.391 µM (active) in experiment [2]; 1.02 µM (active) in experiment [3]; 0.344 µM in [4]; 1.57 µM (inactive) in [5]; 1.45 µM (inactive) in experiment [6]. In addition, the GI50 in experiment [7] was 1.43 µM (inactive); in [8], 0.498 µM (active); in [9], 0.155 µM (active); in experiment [10], 0.236 µM (active); in experiment [11], 2 µM (inactive); in experiment [12] it was 0.255 µM (active). The GI50 in [13] is 1.6 µM (inactive); in [14] it was 1.15 µM (inactive); in experiment [15], 1.52 µM (inactive); in [16], 1.25 µM (inactive); in experiment [17], 0.453 µM (active); in experiment [18] it was 2.62 µM (inactive). For the same molecule, the concentration for 50% growth inhibition (GI50) in experiment [19] is 0.329 µM (active); in experiment [20] it was 1.55 µM (inactive).
For `COc1cc2cc(C(=O)Nc3cc4n(n3)-c3ccccc3C4)[nH]c2c(OC)c1OC`, the GI50 in experiment [1] is 1.08 µM (active); in experiment [2], 11.9 µM (inactive); in [3], 2.17 µM (inactive); in experiment [4] it was 2.52 µM; in experiment [5], 8.93 µM (inactive); in experiment [6], 1.44 µM (inactive). Moreover, the GI50 in experiment [7] is 4.72 µM (inactive); in experiment [8] it was 1.64 µM (inactive); in [9], 8.04 µM (inactive); in experiment [10] it was 2.19 µM (inactive); in experiment [11], 2.9 µM (inactive); in experiment [12], 1.06 µM (active). Further, the GI50 in experiment [13] is 2.98 µM (inactive); in experiment [14], 0.883 µM (active); in experiment [15], 6.25 µM (inactive); in [16], 2.73 µM (inactive); in experiment [17], 10.4 µM (inactive); in experiment [18] it was 1.85 µM (inactive). Moreover, the GI50 in experiment [19] was 8.04 µM (inactive); in experiment [20] it was 7.08 µM (inactive).
For the molecule `C/C(=N\Nc1ncnc2ccccc12)c1ccccn1`, the GI50 in experiment [1] was < 0.01 µM (active); in [2] it was 0.0182 µM (active); in experiment [3], < 0.0169 µM (active); in [4], less than 0.0197 µM; in [5], 1.61 µM (inactive); in experiment [6], 0.195 µM (active). The GI50 was 0.0169 µM (active) in experiment [7]; 0.0294 µM (active) in [8]; < 0.0214 µM (active) in experiment [9]; < 0.0166 µM (active) in [10]; < 0.0161 µM (active) in [11]; 0.019 µM (active) in experiment [12]. Moreover, the GI50 in experiment [13] was 0.2 µM (active); in experiment [14], < 0.0185 µM (active); in experiment [15], 0.0299 µM (active); in experiment [16], < 0.0162 µM (active); in [17], 0.105 µM (active); in [18], 0.157 µM (active). Further, the GI50 is < 0.0196 µM (active) in experiment [19] and 0.0279 µM (active) in [20].
Turning to `Cc1c(-c2ccccc2)c(C#N)c2nnn(C)c(=O)n12`, the GI50 in [1] is > 100 µM (inactive); in experiment [2] it was > 100 µM (inactive); in experiment [3] it was > 100 µM (inactive); in experiment [4], more than 100 µM; in experiment [5], > 100 µM (inactive); in experiment [6] it was > 100 µM (inactive). For the same molecule, the GI50 in experiment [7], in experiment [8], in [9], in [10], in experiment [11] and in experiment [12] was > 100 µM (inactive) each time. Besides, the GI50 in [13] is > 100 µM (inactive); in experiment [14] it was > 100 µM (inactive); in experiment [15], 96.2 µM (inactive); in experiment [16], > 100 µM (inactive); in [17], > 100 µM (inactive); in experiment [18] it was > 100 µM (inactive). In addition, the GI50 in experiment [19] and in [20] was > 100 µM (inactive) throughout.
On to `Oc1c(Br)c(-c2ccccc2)nc2ccccc12`, for which the GI50 was > 10 µM (inactive) in [1]; > 60.4 µM (inactive) in [2]; 7.85 µM (inactive) in [3]; more than 62.5 µM in experiment [4]; > 10 µM (inactive) in experiment [5]; 43.3 µM (inactive) in experiment [6]. Besides, the GI50 in experiment [7] was 35.8 µM (inactive); in experiment [8] it was 10 µM (inactive); in experiment [9] it was 98.4 µM (inactive); in [10], 50.5 µM (inactive); in experiment [11], 36.7 µM (inactive); in [12], 20.7 µM (inactive). The GI50 in experiment [13] was > 89.1 µM (inactive); in experiment [14], 8.3 µM (inactive); in experiment [15], > 100 µM (inactive); in experiment [16], 9.55 µM (inactive); in experiment [17] it was > 10 µM (inactive); in experiment [18], 57.8 µM (inactive). Also, the GI50 is 2.87 µM (inactive) in experiment [19] and 82.8 µM (inactive) in [20].
